According to publication PMC5603573, “Cyclipostins and Cyclophostin analogs as promising compounds in the fight against tuberculosis” (Scientific Reports, 2017):
Values after ≈ are worked out from the molar mass of the structure shown. Where two headings read alike, the source gives them in different places.

Experiments:
M. tb mc^26230 WT = test: microbe, parasite or virus in culture; format: cell-based
[1] = test system: M. tb mc^26230-empty vector; test: REMA, empty vector strain; format: cell-based, Mycobacterium tuberculosis
M. tb mc^26230-Ag85A = test: microbe, parasite or virus in culture; format: cell-based, Mycobacterium tuberculosis
M. tb mc^26230-Ag85C = test: microbe, parasite or virus in culture; format: cell-based, Mycobacterium tuberculosis
M. tb mc^26230-Rv0183 = test: microbe, parasite or virus in culture; format: cell-based, Mycobacterium tuberculosis
M. tb mc^26230-LipH = test: microbe, parasite or virus in culture; format: cell-based, Mycobacterium tuberculosis; settings: for MIC50: REMA
M. tb mc^26230-TesA = test: microbe, parasite or virus in culture; format: cell-based, Mycobacterium tuberculosis
M. tb mc^26230-HsaD = test: microbe, parasite or virus in culture; format: cell-based, Mycobacterium tuberculosis; settings: for MIC50: REMA
[2] = Mycobacterium tuberculosis, REMA

Structure (SMILES): CCCCCCCCCCCCCCCCOP1(=O)OCCC(C(=O)OC)=C(C)O1 (stereo not drawn) [CyC 17]
- MIC50 ratio mutant/WT (M. tb mc^26230 WT): 1.00
- MIC50 ratio mutant/WT [1]: 0.95
- MIC50 ratio mutant/WT (M. tb mc^26230-Ag85A): 1.00
- MIC50 (M. tb mc^26230-Ag85A; [2]): 0.55 ± 0.014 µM (≈ 0.246 µg/mL)
- MIC50 ratio mutant/WT (M. tb mc^26230-Ag85C): 0.98
- MIC50 (M. tb mc^26230-Ag85C; [2]): 0.54 ± 0.009 µM (≈ 0.241 µg/mL)
- MIC50 ratio mutant/WT (M. tb mc^26230-Rv0183; M. tb mc^26230-Rv0183): 0.80
- MIC50 (M. tb mc^26230-Rv0183; Mycobacterium tuberculosis, M. tb mc^26230-Rv0183, REMA): 0.44 ± 0.013 µM (≈ 0.196 µg/mL)
- increase in the MIC50 value compared to WT strain (M. tb mc^26230-LipH): around 1.3 fold
- MIC50 ratio mutant/WT (M. tb mc^26230-LipH; M. tb mc^26230-LipH): 1.31
- MIC50 (M. tb mc^26230-LipH; M. tb mc^26230-LipH): 0.72 ± 0.020 µM (≈ 0.322 µg/mL)
- MIC50 (M. tb mc^26230-LipH; Mycobacterium tuberculosis, M. tb mc^26230-LipH, read-out: MIC50): 0.72 ± 0.02 µM (≈ 0.322 µg/mL)
- MIC50 ratio mutant/WT (M. tb mc^26230-TesA): 0.95
- MIC50 (M. tb mc^26230-TesA; [2]): 0.52 ± 0.012 µM (≈ 0.232 µg/mL)
- increase in MIC50 value compared to WT strain (M. tb mc^26230-HsaD): 2.2 fold
- MIC50 ratio mutant/WT (M. tb mc^26230-HsaD; M. tb mc^26230-HsaD): 2.18
- MIC50 (M. tb mc^26230-HsaD; M. tb mc^26230-HsaD): 1.20 ± 0.026 µM (≈ 0.536 µg/mL)
- MIC50 (M. tb mc^26230-HsaD; Mycobacterium tuberculosis, M. tb mc^26230-HsaD, read-out: MIC50): 1.2 ± 0.026 µM (≈ 0.536 µg/mL)
